In US11701368B2 (EYE CO PTY LTD, priority 2018, dated 2023):
Read-outs that look alike come from different tables or passages of the source.

Key:
[1] = physchem
Excerpt: FIG. 1: Solubility enhancement for MR compounds and TA in saline with addition of hydroxy propyl β-cyclodextrin (data are mean±sd, n=3). Top: FLU and TA; Bottom: 11-DC; DCS and DCSA.

[2] = Stability of drug aqueous solutions under autoclave conditions; assay type: physicochemical; conditions: saturated solution, 121° C./30 min
Excerpt: Preferably, the study materials are sterile, at least to a large degree for preclinical studies. In the absence of a facility for complete aseptic manufacture, in order to sterilize the suspensions there are two possible approaches foreseen—autoclaving the final suspensions in ‘vial’, or gamma sterilization.

[3] = Duration of action (t1/2); conditions: in vivo; read-out: Duration of action (t1/2 in hours) (converted)
[4] = target: T1, glucocorticoid receptor (Homo sapiens, UniProt P04150); assay: Glucocorticoid receptor activity (GR potency) of corticosterones; conditions: relative potency, hydrocortisone (cortisol) = 1
T1 sequence (P04150 1-777): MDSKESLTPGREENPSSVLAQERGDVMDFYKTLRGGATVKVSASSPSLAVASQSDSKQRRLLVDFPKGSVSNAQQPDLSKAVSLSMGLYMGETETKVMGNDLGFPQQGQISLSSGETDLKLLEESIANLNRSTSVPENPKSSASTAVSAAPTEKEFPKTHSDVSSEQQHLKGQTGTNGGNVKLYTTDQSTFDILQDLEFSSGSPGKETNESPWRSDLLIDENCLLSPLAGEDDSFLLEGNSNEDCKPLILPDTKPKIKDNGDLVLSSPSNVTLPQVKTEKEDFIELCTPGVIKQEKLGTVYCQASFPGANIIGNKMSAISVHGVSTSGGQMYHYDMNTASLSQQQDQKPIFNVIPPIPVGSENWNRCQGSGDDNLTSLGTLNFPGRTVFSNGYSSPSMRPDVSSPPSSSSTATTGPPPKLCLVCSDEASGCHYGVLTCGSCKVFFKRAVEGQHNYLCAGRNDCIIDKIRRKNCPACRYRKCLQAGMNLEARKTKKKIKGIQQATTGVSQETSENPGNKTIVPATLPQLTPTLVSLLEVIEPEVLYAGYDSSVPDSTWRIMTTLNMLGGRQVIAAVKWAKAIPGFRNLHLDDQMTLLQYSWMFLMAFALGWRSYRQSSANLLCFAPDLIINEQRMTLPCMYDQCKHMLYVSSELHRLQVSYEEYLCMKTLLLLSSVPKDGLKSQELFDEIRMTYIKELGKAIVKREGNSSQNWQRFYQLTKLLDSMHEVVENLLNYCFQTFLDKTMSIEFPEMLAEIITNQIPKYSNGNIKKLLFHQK

[5] = target: T2, mineralocorticoid receptor (Homo sapiens, UniProt P08235); assay: Mineralocorticoid receptor activity (MR potency) of corticosterones; conditions: relative potency, hydrocortisone (cortisol) = 1
T2 sequence (P08235 1-984): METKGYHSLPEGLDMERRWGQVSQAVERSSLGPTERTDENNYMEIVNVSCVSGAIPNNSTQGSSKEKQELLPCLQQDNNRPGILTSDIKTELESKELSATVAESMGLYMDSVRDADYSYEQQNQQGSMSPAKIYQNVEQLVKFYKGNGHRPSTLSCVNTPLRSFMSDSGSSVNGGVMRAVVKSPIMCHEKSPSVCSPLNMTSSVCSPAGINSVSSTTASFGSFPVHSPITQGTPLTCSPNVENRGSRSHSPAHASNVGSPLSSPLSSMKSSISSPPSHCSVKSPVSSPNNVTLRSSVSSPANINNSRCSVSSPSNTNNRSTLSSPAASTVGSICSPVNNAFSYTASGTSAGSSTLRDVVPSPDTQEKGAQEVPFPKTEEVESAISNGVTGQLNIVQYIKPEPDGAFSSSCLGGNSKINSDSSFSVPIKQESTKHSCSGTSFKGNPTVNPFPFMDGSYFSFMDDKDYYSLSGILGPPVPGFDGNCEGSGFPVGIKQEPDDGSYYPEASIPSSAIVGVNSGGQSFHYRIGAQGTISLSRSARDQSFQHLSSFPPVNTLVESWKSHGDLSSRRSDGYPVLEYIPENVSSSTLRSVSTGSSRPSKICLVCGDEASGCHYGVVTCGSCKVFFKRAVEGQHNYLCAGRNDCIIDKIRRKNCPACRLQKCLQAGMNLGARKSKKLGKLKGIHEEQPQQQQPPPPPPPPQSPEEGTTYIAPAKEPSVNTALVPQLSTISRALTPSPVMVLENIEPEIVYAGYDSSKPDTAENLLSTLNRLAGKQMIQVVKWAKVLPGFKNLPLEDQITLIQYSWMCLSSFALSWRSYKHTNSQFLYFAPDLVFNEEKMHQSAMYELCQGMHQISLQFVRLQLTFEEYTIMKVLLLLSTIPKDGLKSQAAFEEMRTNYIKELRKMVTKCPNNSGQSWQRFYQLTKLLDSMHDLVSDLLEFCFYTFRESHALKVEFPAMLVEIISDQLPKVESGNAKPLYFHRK

[6] = Drug storage stability in saline (accelerated stability trial)
Excerpt: Consequently it was felt to be important to characterise the drug stability over time in aqueous solution as an indicator of likely issues with drug content and/or degradation products in the suspensions on storage.

[7] = system: New Zealand albino rabbit eyes; conditions: cited from earlier work
[8] = Batch production: particle size (RGA40/2); assay type: physicochemical; conditions: for Particle Size D(0.5): specification <20; for Particle Size D(0.9): specification <30
[9] = Batch production: pH (RGA40/3); assay type: physicochemical; conditions: specification 6.0-8.0
[10] = Particle sizing by laser light scattering; assay type: physicochemical; conditions: as received powder
[11] = Batch production: Av drug content per vial (RGA40/1); assay type: physicochemical; conditions: batch after freeze drying and gamma sterilization; specification 20.0 ± 2.0 mg
[12] = Stability of dry drug powders under gamma irradiation; assay type: physicochemical; conditions: 25 kGy
Excerpt: The poor stability of most drugs under either autoclave or gamma irradiation when in contact with aqueous diluent led to a further set of stability studies to test the effect of gamma irradiation on the dry drug powders, with a view to providing the study materials as sterile powders for reconstitution immediately prior to administration.

[13] = Stability of drug aqueous solutions under gamma irradiation; assay type: physicochemical; conditions: saturated aqueous solution, ~25 kGy at ambient temperature
Method: Preferably, the study materials are sterile, at least to a large degree for preclinical studies. In the absence of a facility for complete aseptic manufacture, in order to sterilize the suspensions there are two possible approaches foreseen—autoclaving the final suspensions in ‘vial’, or gamma sterilization. Consequently, in order to initially test the resistance of the drug to degradation in the ‘wet’ environment, drug in saturated solutions were prepared as for the storage stability studies above and subjected to autoclave conditions (121° C./30 min) or gamma irradiation (˜25 kGy at ambient temperature).
Gamma irradiation was conducted at a firm in Melbourne (Steritech; 160 South Gippsland Hwy, Dandenong Sth) and QC certificates provided verifying dose of gamma irradiation received. The samples were exposed to 25 kGy radiation, which severely discoloured the vials, in long term this method may be very suitable when an appropriate glass container, resistant to gamma rays, is used for sample preparation.

Structure (SMILES): CC1(C)O[C@@H]2C[C@H]3[C@@H]4CCC5=CC(=O)C=C[C@]5(C)[C@@]4(F)[C@@H](O)C[C@]3(C)[C@]2(C(=O)CO)O1 [TA, triamcinolone acetonide]
- absolute solubility (compared with FLU) [1]: lower overall
- aqueous solubility relative to the other compounds [1]: very low
- stability of aqueous solution to autoclave conditions [2]: moderately stable

Structure (SMILES): C[C@H]1C[C@@H]2[C@H]([C@@H](O)C[C@@]3(C)[C@H]2CC[C@]3(O)C(=O)CO)[C@@]2(C)C=CC(=O)C=C12 [Methylprednisolone]
- half-life [3]: 18 to 40 h

Structure (SMILES): C[C@]12C=CC(=O)C=C1CC[C@H]1[C@@H]3C[C@@H](O)[C@](O)(C(=O)CO)[C@@]3(C)C[C@H](O)[C@@]12F [Triamcinolone]
- GR potency [4]: 5
- half-life [3]: 12 to 36 h
- MR potency [5]: 0

Structure (SMILES): C[C@]12CCC(=O)C=C1CC[C@H]1[C@@H]3CC[C@](O)(C(=O)CO)[C@@]3(C)C[C@H](O)[C@@]12F [FLU, fludrocortisone]
- drug concentration remaining, % of original concentration ([6]; saturated solution in saline, 60° C., after two weeks): 20%
- stability in saline over time ([6]; saturated solution in saline, 60° C., up to 14 days): marked instability
- stability of aqueous solution to autoclave conditions [2]: partly degraded
- ERG in the other groups / other eyes ([7]; intravitreal 400 μg, 1 mg, 2 mg/0.1 ml and remaining eyes, two weeks after injection): no significant decrease in ERG
- eyes with decreases in ERG ([7]; intravitreal 4 mg/0.1 ml, two weeks after injection): One
- eyes with vitreous hemorrhage ([7]; intravitreal 4 mg/0.1 ml): one
- signs of retinal toxicity on slit-lamp examination, indirect ophthalmoscopy or light microscopy ([7]; rabbit, in vivo): no signs of retinal toxicity

Structure (SMILES): C[C@H]1C[C@H]2[C@@H]3CCC4=CC(=O)C=C[C@]4(C)[C@@]3(Cl)[C@@H](O)C[C@]2(C)[C@@]1(O)C(=O)CO [Beclometasone]
- GR potency [4]: 8 puffs 4 times a day;

Structure (SMILES): C[C@]12CCC(=O)C=C1CC[C@@H]1[C@@H]2[C@@H](O)C[C@]2(C=O)[C@@H](C(=O)CO)CC[C@@H]12 [Aldosterone]
- GR potency [4]: 0.3
- MR potency [5]: 200-1000

Structure (SMILES): C[C@]12CC[C@H]3[C@@H](CCC4=CC(=O)CC[C@@]43C)[C@@H]1CC[C@@H]2C(=O)CO [DCS, Deoxycorticosterone]
- Particle Size D(0.5) [8]: Particle RGA40/2 D(0.5) = <20 12.7 3 Nov. 2006 Passed
- Particle Size D(0.9) [8]: Size D(0.9) = <30 30.0
- pH [9]: pH RGA40/3 6.0-8.0 7.0 3 Nov. 2006 Passed
- solubility relative to 11-DC and DCSA [1]: 4-8 fold
- concentration in solution ([1]; saline with 50 mM HP-βCD): > 8000 µg/mL
- stability of aqueous solution to autoclave conditions [2]: stable
- D(v, 0.5) [10]: 22 microns
- D(v, 0.9) [10]: 80 microns
- Av Drug Content per vial [11]: Av Drug RGA40/1 20.0 ± 2.0 mg 18.5 ± 0.7 1 Nov. 2006 Passed

Structure (SMILES): CC(=O)OCC(=O)[C@H]1CC[C@H]2[C@@H]3CCC4=CC(=O)CC[C@]4(C)[C@H]3CC[C@]12C [DCSA, deoxycorticosterone acetate]
- Particle Size D(0.5) [8]: Particle RGA40/2 D(0.5) = <20 8.25 3 Nov. 2006 Passed
- Particle Size D(0.9) [8]: Size D(0.9) = <30 26.77
- GR potency [4]: 0
- stability of dry powder to gamma sterilization (drug content vs non-irradiated control) [12]: slight reduction in drug content
- stability of aqueous solution to gamma irradiation [13]: completely degraded
- pH [9]: pH RGA40/3 6.0-8.0 7.0 3 Nov. 2006 Passed
- aqueous solubility relative to the other compounds [1]: very low
- plateau concentration in solution ([1]; 48 h): around 2 mg/mL
- solubility ([1]; aqueous with cosolvent or surfactant or cyclodextrin, thermodynamic from solid): > 6000 µg/mL
- stability of aqueous solution to autoclave conditions [2]: completely degraded to DCS
- D(v, 0.5) [10]: 52 microns
- D(v, 0.9) [10]: 226 microns
- MR potency [5]: 20
- Av Drug Content per vial [11]: Av Drug RGA40/1 20.0 ± 2.0 mg 16 ± 0.9 2 Nov. 2006 Failed•

Structure (SMILES): C[C@]12CCC(=O)C=C1CC[C@@H]1[C@@H]2C(=O)C[C@@]2(C)[C@H]1CC[C@]2(O)C(=O)CO [Cortisone]
- GR potency [4]: 0.8
- MR potency [5]: 0.8

Structure (SMILES): C[C@]12CCC(=O)C=C1CC[C@@H]1[C@@H]2[C@@H](O)C[C@@]2(C)[C@H]1CC[C@]2(O)C(=O)CO [Hydrocortisone (cortisol), Hydrocortisone]
- GR potency [4]: 1
- half-life [3]: 8 h
- MR potency [5]: 1

Structure (SMILES): C[C@]12C=CC(=O)C=C1CC[C@@H]1[C@@H]2C(=O)C[C@@]2(C)[C@H]1CC[C@]2(O)C(=O)CO [Prednisone]
- half-life [3]: 16 to 36 h
- MR potency [5]: 0.8

Structure (SMILES): C[C@]12CCC(=O)C=C1CC[C@@H]1[C@@H]2CC[C@@]2(C)[C@H]1CC[C@]2(O)C(=O)CO [11-DC, 11-deoxycortisol]
- Particle Size D(0.5) [8]: Particle RGA40/2 D(0.5) = <20 7.1 3 Nov. 2006 Passed
- Particle Size D(0.9) [8]: Size D(0.9) = <30 25
- initial drug content remaining after gamma irradiation [13]: less than 20%
- pH [9]: pH RGA40/3 6.0-8.0 7.0 3 Nov. 2006 Passed
- drug concentration remaining, % of original concentration [6]: > 90%
- stability of aqueous solution to autoclave conditions [2]: stable
- D(v, 0.5) [10]: 81 microns
- D(v, 0.9) [10]: 233 microns
- Av Drug Content per vial [11]: Av Drug RGA40/1 20.0 ± 2.0 mg 18.4 ± 0.5 27 Oct. 2006 Passed

Structure (SMILES): C[C@]12C=CC(=O)C=C1CC[C@@H]1[C@@H]2[C@@H](O)C[C@@]2(C)[C@H]1CC[C@]2(O)C(=O)CO [Prednisolone]
- GR potency [4]: 4
- half-life [3]: 16 to 36 h
- MR potency [5]: 0.8
